Reference: patent US20240124556A1, “KERATIN BD-3, PREPARATION METHOD THEREFOR AND PHARMACEUTICAL COMPOSITION AND USE THEREOF” (INSTITUTE OF MATERIA MEDICA, CHINESE ACADEMY OF MEDICAL …, priority 2019, published 2024)
Where a name gives a salt, the structure may show the parent alone.

Tested on: phenol red excretion in mice
Test: Expectorant test, phenol red excretion method in mice
Type: in vivo, ICR mice
Experimental: • Animals: male ICR mice; • Drugs and reagents: Mucosolvan (ambroxol hydrochloride tablets), phenol red, sodium bicarbonate, protein BD-3; • Instruments: centrifuge (Sigma-3K15 type), balance (XS105DU type), Microplate tester (BIO-TEK type). • Experiment Grouping: • Solvent control group; • Mucosolvan 30 mg/kg group; • Protein BD-3, 20 mg/kg group, 50 mg/kg group.
The animals were fasted and water was taken freely 16 hours before the experiment. Orally administered Mucosolvan and different doses of protein BD-3 (administration volume 10 ml/kg) in groups, and the solvent control group was given the same volume of distilled water. One hour later, 2.5% phenol red solution was injected intraperitoneally. Mice were sacrificed by neck dislocation after 30 minutes. […] Measure and record the absorbance at 546 nm. According to the standard curve of phenol red, the excretion of phenol red was calculated.
Record the time point of oral administration, the time point of intraperitoneal injection of 2.5% phenol red solution, and the time point of taking the trachea respectively; The absorbance of each group of samples was measured by the microplate reader at 546 nm, Calculate the excretion of phenol red according to the standard curve of phenol red. […]

Compound: Nc1c(Br)cc(Br)cc1CN[C@H]1CC[C@H](O)CC1 [Mucosolvan, ambroxol hydrochloride, reference compound]
- Phenol red excretion (Mucosolvan 30 mg/kg oral, X ± SEM, solvent control 0.506 ± 0.040): 1.061 ± 0.117 µg/mL
- Amount of phenol red excretion vs solvent control (in words) (Mucosolvan 30 mg/kg, P<0.05): significantly increased
